{"source": "ChEMBL document CHEMBL1134323", "about": "“Structural basis for the binding affinity of xanthines with the DNA intercalator acridine orange” (J Med Chem, 2001)"}
{"tested_on": "Nucleic Acid", "units": {"K ass": "M⁻¹"}, "description": "Binding affinity to DNA intercalator Acridine orange."}
{"smiles": "Oc1nc(O)c2nc(O)[nH]c2n1", "K ass": 0}
{"smiles": "CN1CNc2[nH]c(=O)n(C)c(=O)c21", "K ass": 155}
{"smiles": "Cn1c(=O)[nH]c2[nH]cnc2c1=O", "K ass": 79.2}
{"smiles": "Cc1ncnc2nc[nH]c12", "K ass": 0}
{"smiles": "c1nc2c[nH]cnc-2n1", "K ass": 2}
{"smiles": "Cn1c(=O)c2c(n(C)c1=O)n(C)c(=O)n2C", "K ass": 552}
{"smiles": "Nc1nc2[nH]cnc2c(=O)[nH]1", "K ass": 0}
{"smiles": "O=c1[nH]c(=O)c2nc[nH]c2[nH]1", "K ass": 0}
{"smiles": "Cn1c(=O)c2[nH]c(=O)[nH]c2n(C)c1=O", "K ass": 38.5}
{"smiles": "Cn1c(=O)[nH]c(=O)c2[nH]cnc21", "K ass": 10}
{"smiles": "Cn1c(=O)c2[nH]cnc2n(C)c1=O", "K ass": 157}
{"smiles": "Cn1c2c(c(=O)n(C)c1=O)NCN2.N/C=C/N", "K ass": 596}
{"smiles": "Cn1c(O)nc2[nH]c(=O)[nH]c(=O)c21", "K ass": 0}
{"smiles": "Clc1ncnc2[nH]cnc12", "K ass": 0}
